Assays:
T. reesei [1] = test: Effects of several surfactants on morphology (flocculation / pellet formation) of T. reesei; assay type: cell-based, Trichoderma reesei RUT C30; settings: for Effective in changing morphology?: compared with 0.5 g/L and 1 g/L surfactant concentrations
From the text: The effects of several surfactants on the morphology of T. reesei were studied. TABLE 1 summarizes the observations of the effects of several surfactants regarding to flocculation or formation of pellets in T. reesei. […] All surfactants listed in TABLE 1 were compared with 0.5 g/L and 1 g/L surfactant concentrations.

T. reesei [2] = test: Shake flask growth of T. reesei with Triton X-100 (Example 6): morphology, growth, enzyme activity; assay type: cell-based, Trichoderma reesei RUT C30
Experimental: The effect of growing a fungus in a growth medium containing Triton X-100 was tested. A culture was grown on a growth medium containing (g/L): (NH4)2SO4 1.4, KH2PO4 2, MgSO4.7H2O 0.3, CaCl2.2H2O 0.4, urea 0.3, peptone 1.0, Tween-80 0.2, FeSO4.7H2O 0.005, MnSO4.H2O 0.0016, ZnSO4.7H2O 0.0014, CoCl2 0.002, and lactose 10.0. Initially the unadjusted pH was 5.5 after autoclaving.
Test cultures were grown in 50 mL volume in 250 mL flasks at 28° C. in a Que Orbital shaker (Model 4703, Parkersburg, W.Va., USA) at 250 rpm without pH control, initially at 5.5, for 7 days. Triton X-100 was tested at the following concentrations (g/L): 0.1, 0.3, 0.6, 0.8, 1.0, 1.5.
Cultures were followed for 7 days and visually checked for bulk morphology. Periodic monitoring was done aseptically by collecting a 2 mL representative sample every 24 hrs to measure cell concentration, enzyme activity, sugar concentration, and residual surfactant amounts.

| Substance | Size of generally uniform pellets formed (T. reesei [1]) | Effective in changing morphology? (T. reesei [1]) | global average doubling time (T. reesei [2]; across tested Triton concentrations, following the lag phase) [h] | average increase in the enzyme activity (T. reesei [2]; additive concentration in excess of 0.1 g/L) [%] | lag compared to the surfactant free system (T. reesei [2]; concentrations above 0.1 g/L) | concentration producing "pellet" growth (T. reesei [2]; tested at 0.1-1.5 g/L, 7 days, 28° C., 250 rpm) | Description: tendency toward cell flocculation with increasing surfactant concentration (T. reesei [1]; 0.5 g/L and 1 g/L surfactant, flocculation is correlated with pellet formation) |
| --- | --- | --- | --- | --- | --- | --- | --- |
| 4-(1,1,3,3-tetramethylbutyl)phenyl-polyethylene glycol [Triton X-100] | uniform ~1 mm pellets | YES | 9.1 ± 1.8 | 73±12 | one-day | greater than 0.3 g/L | – |
| polyoxyethylene sorbitan monolaurate [TWEEN ® 20] | – | YES | – | – | – | – | shows tendencies toward increased |

Reference: patent publication US20110027858A1, “Method of Modifying Fungal Morphology” (University of Akron, priority 2009, published 2011)
